The source of these data is patent US11390631B1, “Benzodiazepine derivatives as RSV inhibitors” (priority 2015, dated 2022).

The subject of the experiment is Human RSV-A (“Long” strain). The experiment is described as follows: RSV-A assay: inhibition of cytopathic effect in Hep-2 cells, ATPlite readout. Conditions: read-out: Human RSV-A (“Long” strain) EC50. The class given is cell-based, Human respiratory syncytial virus (HRSV). The source says:
Hep-2 cells, (originally derived from tumors grown in irradiated-cortisonised weanling rats that had been injected with epidermoid carcinoma tissue from a person's larynx, but later found to be indistinguishable from HeLa cells by PCR DNA analysis), were used for the culturing of genotype A, “Long” strain RSV. Flasks were inoculated with RSV and viral stocks were collected once cytopathic effect (CPE) was greater than 90%. Viral stocks in 25% sucrose media were snap frozen using liquid nitrogen to increase viral stability. Viral stock titers were quantified by tissue culture infectious dose 50% (TCID50) using 8,000 cells per well and 3-fold viral dilutions across a 96-well plate, cultured for 4 days. Viral stock titers were also quantified by a plaque forming unit assay, as described elsewhere.
Following extensive parameter testing, the final assay is run as follows: Hep-2 cells are seeded into the inner 60 wells of a 96-well plate at 8,000 cells per well in a volume of 50 μL using Growth Media (DMEM without phenol red, 1% L-Glut, 1% Penn/Strep, 1% nonessential amino acids, 10% heat-inactivated FBS). 2-fold serial dilutions of control and test compounds are added to the wells in duplicate in a total volume of 25 μL. Viral stock is then added to the wells at a multiplicity of infection (MOI) of 0.1 in a volume of 25 μL, bringing the total volume of each well to 100 μL. The MOI is calculated using the PFU/mL, or TCID50 if unavailable. Each 96-well plate has a control column of 6 wells with cells and virus but no compound (negative control, max CPE), a column with cells but no compound or virus (positive control, minimum CPE), and a column with no cells or virus or compound (background plate/reagent control). The control wells with cells but no virus are given an additional 25 uL of growth media containing an equal quantity of sucrose as those wells receiving the viral stock in order to keep consistent in media and volume conditions. The outer wells of the plate are filled with 125 μL of moat media (DMEM, 1% Penn/Strep) to act as a thermal and evaporative moat around the test wells. Following a 5-day incubation period, the plates are read using ATPlite (50 uL added per well), which quantifies the amount of ATP (a measure of cell health) present in each well. Assay plates are read using the Envision luminometer. In parallel, cytotoxicity is examined on an additional 96-well plate treated in an identical manner, but substituting the 25 μL of viral stock for 25 μL of growth media. […] EC50 ranges are as follows: A<0.4 μM; B 0.4-0.8 μM; C>0.8 μM and CC50 ranges are as follows: A>50 μM; B 10-50 μM; C<10 μM.
For orientation: Protection from cytopathic effect is a common read-out in antiviral testing.

Where [1] appears, read: human respiratory syncytial virus, HEp-2, 120 h.
The mark [2] stands for this setting: Hep-2 cells, MOI 0.1, 5-day incubation, ATPlite.

Where two headings read alike, the source gives them in different places.

For the compound `O=C1Nc2ccccc2C(c2ccccc2)=N[C@@H]1Nc1nnc(-c2ncc(C(F)(F)F)cc2N2CCOC3CC32)o1` (mixture of isomers) [Example 466], the EC50 – broadly, the concentration giving half of the maximal effect – under setting [1] was < 400 nM.

With `O=C1Nc2ccccc2C(c2ccccc2)=N[C@@H]1Nc1nnc(-c2ncc(C(F)(F)F)cc2N2CCOC(C(F)(F)F)C2)o1` (mixture of isomers) [Example 467], the EC50 under setting [1] was < 400 nM.

Take `O=C1Nc2ccccc2C(c2ccccc2)=N[C@@H]1Nc1nnc(-c2nc(C(F)(F)F)sc2N2CCO[C@H]3C[C@H]32)o1` (single isomer, unassigned) [Example 484]: the EC50 under setting [2] is < 400 nM.

As for `O=C1Nc2ccccc2C(c2ccccc2)=N[C@H]1Nc1nnc(-c2nc(C(F)(F)F)sc2N2CCO[C@H]3C[C@H]32)o1` (single isomer, unassigned) [Example 485], under setting [2], the EC50 was > 800 nM.

For the compound `O=C1Nc2ccccc2C(c2ccccc2)=N[C@@H]1Nc1nnc(-c2nc(C(F)(F)F)sc2N2CCO[C@@H]3C[C@@H]32)o1` (single isomer, unassigned) [Example 486], under setting [2], the 50% effective concentration (EC50) is > 800 nM.

As for `O=C1Nc2ccccc2C(c2ccccc2)=N[C@H]1Nc1nnc(-c2nc(C(F)(F)F)sc2N2CCO[C@@H]3C[C@@H]32)o1` (single isomer, unassigned) [Example 487], the concentration for a half-maximal effect (EC50) under setting [2] is > 800 nM.

As to `N#Cc1ccc(-c2nnc(NC3N=C(c4ccccc4)c4ccccc4NC3=O)o2)nc1` (stereo not drawn) [Example 24], under setting [1], the half-maximal effective concentration (EC50) fell in the range of 400 to 800 nM.

As to `COc1cc(-c2nnc(NC3N=C(c4ccccc4)c4ccccc4NC3=O)o2)ccn1` (stereo not drawn) [Example 56], the EC50 under setting [1] is > 800 nM.

As for `CCOC(=O)c1nnc(NC2N=C(c3ccccc3)c3ccccc3NC2=O)o1` (stereo not drawn) [Example 78], the EC50 under setting [1] was > 800 nM.

With `O=C1Nc2ccccc2C(c2ccccc2)=NC1Nc1ncc(-c2ccccc2)s1` (stereo not drawn) [Example 85], the EC50 under setting [1] was > 800 nM.

As for `O=C1Nc2ccccc2C(c2ccccc2)=NC1Nc1noc(-c2ccccc2)n1` (stereo not drawn) [Example 91], the EC50 under setting [1] was > 800 nM.

Regarding `COc1ccc(CN2C(=O)C(C)(N)N=C(c3ccccc3)c3ccccc32)cc1` (stereo not drawn) [Example 102], the EC50 under setting [1] was > 800 nM.

Consider `CS(=O)(=O)c1ccc(-c2nnc(NC3N=C(c4ccccc4)c4ccccc4NC3=O)o2)nc1` (stereo not drawn) [Example 107], for which, under setting [1], the EC50 was > 800 nM.

For the compound `COc1ccc(-c2nnc(NC3N=C(c4ccccc4)c4ccccc4NC3=O)o2)nc1Cl` (stereo not drawn) [Example 109], the EC50 under setting [1] was > 800 nM.

Turning to `Cc1nc(-c2nnc(NC3N=C(c4ccccc4)c4ccccc4NC3=O)o2)ccc1F` (stereo not drawn) [Example 110], under setting [1], the EC50 is > 800 nM.

Consider `O=C1Nc2ccccc2C(c2ccccc2)=NC1Nc1nnc(-c2cccc(N3CCOCC3)c2)o1` (stereo not drawn) [Example 111], for which the EC50 under setting [1] is > 800 nM.

Regarding `O=C1Nc2ccccc2C(c2ccccc2)=NC1Nc1nnc(-c2ccc(N3CCOCC3)c(F)c2)o1` (stereo not drawn) [Example 112], the EC50 under setting [1] was > 800 nM.

Turning to `O=C1Nc2ccccc2C(c2ccccc2)=NC1Nc1nnc(-c2ccc(N3CCOCC3)cn2)o1` (stereo not drawn) [Example 114], the EC50 under setting [1] is > 800 nM.

Consider `O=C1Nc2ccccc2C(c2ccccc2)=NC1Nc1nnc(-c2ccc(N3CCOCC3)nc2)o1` (stereo not drawn) [Example 115], for which the EC50 under setting [1] was < 400 nM.

As to `O=C1Nc2ccccc2C(c2ccccc2)=NC1Nc1nnc(-c2ccc(NC3CCCCC3)cc2)o1` (stereo not drawn) [Example 116], the EC50 under setting [1] is > 800 nM.

Consider `COCCNc1ccc(-c2nnc(NC3N=C(c4ccccc4)c4ccccc4NC3=O)o2)cc1` (stereo not drawn) [Example 117], for which the EC50 under setting [1] was > 800 nM.

As for `COCCN(C)c1ccc(-c2nnc(NC3N=C(c4ccccc4)c4ccccc4NC3=O)o2)cc1` (stereo not drawn) [Example 118], the EC50 under setting [1] was > 800 nM.

As for `O=C1Nc2ccccc2C(c2ccccc2)=NC1Nc1nnc(-c2cc(F)ccc2N2CCOCC2)o1` (stereo not drawn) [Example 119], under setting [1], the concentration giving a half-maximal response (EC50) lay within 400 to 800 nM.

Turning to `CS(=O)(=O)c1ccc(-c2nnc(NC3N=C(c4ccccc4)c4ccccc4NC3=O)o2)c(N2CCOCC2)c1` (stereo not drawn) [Example 121], the EC50 under setting [1] was > 800 nM.

Take `O=C1Nc2ccccc2C(c2ccccc2)=NC1Nc1nnc(-c2ccc(N3CCOCC3)cc2Cl)o1` (stereo not drawn) [Example 122]: the EC50 under setting [1] is > 800 nM.

As for `O=C1Nc2ccccc2C(c2ccccc2)=NC1Nc1nnc(-c2ccc(N3CCOCC3)cc2)o1` (stereo not drawn) [Example 124a], under setting [1], the EC50 is < 400 nM.

As to `O=C1Nc2ccccc2C(c2ccccc2)=N[C@H]1Nc1nnc(-c2ccc(N3CCOCC3)cc2)o1` [Example 124b], under setting [1], the EC50 was > 800 nM.

With `O=C1Nc2ccccc2C(c2ccccc2)=N[C@@H]1Nc1nnc(-c2ccccc2N2CCOCC2)o1` [Example 125a], the concentration for a half-maximal effect (EC50) under setting [1] is < 400 nM.

For the compound `O=C1Nc2ccccc2C(c2ccccc2)=N[C@H]1Nc1nnc(-c2ccccc2N2CCOCC2)o1` [Example 125b], the EC50 under setting [1] is > 800 nM.

On to `O=C1Nc2ccccc2C(c2ccccc2)=N[C@@H]1Nc1nnc(-c2ccc(N3CCOCC3)cc2F)o1` [Example 126a], for which the concentration for a half-maximal effect (EC50) under setting [1] was < 400 nM.

Consider `O=C1Nc2ccccc2C(c2ccccc2)=N[C@H]1Nc1nnc(-c2ccc(N3CCOCC3)cc2F)o1` [Example 126b], for which the concentration for a half-maximal effect (EC50) under setting [1] is > 800 nM.

With `O=C1Nc2ccccc2C(c2ccccc2)=NC1Nc1nnc(-c2ccc(-n3cncn3)cc2N2CCOCC2)o1` (stereo not drawn) [Example 128], the EC50 under setting [1] fell in the range of 400 to 800 nM.

Turning to `O=C1Nc2ccccc2C(c2ccccc2)=NC1Nc1nnc(-c2ccc(C(F)(F)F)nc2N2CCOCC2)o1` (stereo not drawn) [Example 130], the concentration for a half-maximal effect (EC50) under setting [1] fell in the range of 400 to 800 nM.

`O=C1Nc2ccccc2C(c2ccccc2)=NC1Nc1nnc(-c2ncccc2N2CCOCC2)o1` (stereo not drawn) [Example 132]: the 50% effective concentration (EC50) under setting [1] is < 400 nM.

For `O=C1Nc2ccccc2C(c2ccccc2)=NC1Nc1nnc(-c2cnccc2N2CCOCC2)o1` (stereo not drawn) [Example 133], under setting [1], the half-maximal effective concentration (EC50) lay within 400 to 800 nM.

For `O=C1Nc2ccccc2C(c2ccccc2)=NC1Nc1nnc(-c2cnccc2N2CCCCC2)o1` (stereo not drawn) [Example 134], under setting [1], the EC50 is > 800 nM.

Take `O=C1Nc2ccccc2C(c2ccccc2)=NC1Nc1nnc(-c2ncc(N3CCOCC3)cc2Cl)o1` (stereo not drawn) [Example 135]: the 50% effective concentration (EC50) under setting [1] was > 800 nM.

Turning to `N#Cc1cnc(-c2nnc(NC3N=C(c4ccccc4)c4ccccc4NC3=O)o2)c(N2CCOCC2)c1` (stereo not drawn) [Example 140], the EC50 under setting [1] is < 400 nM.

For `O=C1Nc2ccccc2C(c2ccccc2)=NC1Nc1nnc(-c2ccncc2N2CCCCC2)o1` (stereo not drawn) [Example 141], under setting [1], the EC50 is > 800 nM.

On to `O=C1Nc2ccccc2C(c2ccccc2)=NC1Nc1nnc(-c2ccncc2N2CCOCC2)o1` (stereo not drawn) [Example 142], for which, under setting [1], the EC50 was 400 to 800 nM.

As for `O=C1Nc2ccccc2C(c2ccccc2)=NC1Nc1nnc(-c2nccnc2N2CCOCC2)o1` (stereo not drawn) [Example 143], the EC50 under setting [1] is < 400 nM.

In the case of `O=C1Nc2ccccc2C(c2ccccc2)=NC1Nc1nnc(-c2cc(F)cnc2N2CCOCC2)o1` (stereo not drawn) [Example 145], under setting [1], the EC50 fell in the range of 400 to 800 nM.

For the compound `O=C1Nc2ccccc2C(c2ccccc2)=NC1Nc1nnc(-c2cc(C(F)(F)F)cnc2N2CCOCC2)o1` (stereo not drawn) [Example 146], under setting [1], the concentration giving a half-maximal response (EC50) was > 800 nM.

Take `O=C1Nc2ccccc2C(c2ccccc2)=NC1Nc1nnc(-c2ccc(N3CCOCC3)cc2C(F)(F)F)o1` (stereo not drawn) [Example 147]: the EC50 under setting [1] was > 800 nM.

Take `O=C1Nc2ccccc2C(c2ccccc2)=NC1Nc1nnc(-c2cccc(F)c2N2CCOCC2)o1` (stereo not drawn) [Example 148]: the half-maximal effective concentration (EC50) under setting [1] is > 800 nM.

With `O=C1Nc2ccccc2C(c2ccccc2)=N[C@@H]1Nc1nnc(-c2ccc(F)nc2N2CCOCC2)o1` [Example 151, (S)-3-((5-(6-fluoro-2-morpholinopyridin-3-yl)-1,3,4-oxadiazol-2-yl)amino)-5-phenyl-1,3-dihydro-2H-benzo[e][1,4]diazepin-2-one], the 50% effective concentration (EC50) under setting [1] is < 400 nM.

`O=C1Nc2ccccc2C(c2ccccc2)=N[C@@H]1Nc1nnc(-c2ccc(C(F)(F)F)cc2N2CCOCC2)o1` [Example 152]: the half-maximal effective concentration (EC50) under setting [1] was < 400 nM.

On to `O=C1Nc2ccccc2C(c2ccccc2)=N[C@@H]1Nc1nnc(-c2ccc(C3CC3)nc2N2CCOCC2)o1` [Example 154], for which, under setting [1], the EC50 was < 400 nM.

As to `O=C1Nc2ccccc2C(c2ccccc2)=N[C@@H]1Nc1nnc(-c2ccc(=O)[nH]c2N2CCOCC2)o1` [Example 156, (S)-3-((5-(2-morpholino-6-oxo-1,6-dihydropyridin-3-yl)-1,3,4-oxadiazol-2-yl)amino)-5-phenyl-1,3-dihydro-2H-benzo[e][1,4]diazepin-2-one], under setting [1], the concentration giving a half-maximal response (EC50) was > 800 nM.

As for `N#Cc1ccc(-c2nnc(N[C@H]3N=C(c4ccccc4)c4ccccc4NC3=O)o2)c(N2CCOCC2)c1` [Example 157], the EC50 under setting [1] is < 400 nM.

Regarding `O=C1Nc2ccccc2C(c2ccccc2)=N[C@@H]1Nc1nnc(-c2ccc(F)cc2N2CCOCC2)o1` [Example 159], the EC50 under setting [1] is < 400 nM.
